The supplement of paper PMC10307832

Key:
Assay in all cases: relative viability (nuclei count vs DMSO), 5 days (fraction); higher = more cells survive
[1] = compound: C1=CC=C2C(=C1)N=C(S2)C(C#N)C3=NC(=NC=C3)NCCC4=CN=CC=C4 + COc1cccc2cc(-c3nc([C@H]4CC[C@H](C(=O)O)CC4)n4ncnc(N)c34)[nH]c12 [OSI-027] (partner 0.5 µM)
Summary of the method: (§1)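 The day after seeding in 1536-well plates, lung cancer cell lines were treated by pin tool with a single drug, or with a fixed anchor-drug dose together with five library-drug doses (not always all listed) in √10 steps. After 5 days, a combined fix-and-stain solution (final 0.05% Triton X-100, 1% formaldehyde, 1 ug/ml Hoechst) was added. Nuclei counted on 4× images gave relative viability as treated counts over vehicle counts, reported as the median of duplicate plates.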

Vandetanib + Alpelisib = compound: COc1cc2/c(=N/c3ccc(Br)cc3F)nc[nH]c2cc1OCC1CCN(C)CC1 [Vandetanib] + Cc1nc(NC(=O)N2CCC[C@H]2C(N)=O)sc1-c1ccnc(C(C)(C)C(F)(F)F)c1 [Alpelisib] (partner 2 µM)
Summary of the method: as §1

Vandetanib + Olaparib = compound: COc1cc2/c(=N/c3ccc(Br)cc3F)nc[nH]c2cc1OCC1CCN(C)CC1 [Vandetanib] + O=C(c1cc(Cc2n[nH]c(=O)c3ccccc23)ccc1F)N1CCN(C(=O)C2CC2)CC1 [Olaparib] (partner 8 µM)
Summary of the method: as §1

Vandetanib + Phenformin = compound: COc1cc2/c(=N/c3ccc(Br)cc3F)nc[nH]c2cc1OCC1CCN(C)CC1 [Vandetanib] + N=C(N)NC(=N)NCCc1ccccc1 [Phenformin] (partner 250 µM)
Summary of the method: as §1

Cell Line	relative viability ([1]; first compound 0.005 µM)	relative viability ([1]; first compound 0.01581 µM)	relative viability ([1]; first compound 0.05 µM)	relative viability ([1]; first compound 0.1581 µM)	relative viability ([1]; first compound 0.5 µM)	relative viability (Vandetanib + Alpelisib; first compound 0.02 µM)	relative viability (Vandetanib + Alpelisib; first compound 0.06325 µM)	relative viability (Vandetanib + Alpelisib; first compound 0.2 µM)	relative viability (Vandetanib + Alpelisib; first compound 0.6325 µM)	relative viability (Vandetanib + Alpelisib; first compound 2 µM)	relative viability (Vandetanib + Olaparib; first compound 0.02 µM)	relative viability (Vandetanib + Olaparib; first compound 0.06325 µM)	relative viability (Vandetanib + Olaparib; first compound 0.2 µM)	relative viability (Vandetanib + Olaparib; first compound 0.6325 µM)	relative viability (Vandetanib + Olaparib; first compound 2 µM)	relative viability (Vandetanib + Phenformin; first compound 0.02 µM)	relative viability (Vandetanib + Phenformin; first compound 0.06325 µM)	relative viability (Vandetanib + Phenformin; first compound 0.2 µM)	relative viability (Vandetanib + Phenformin; first compound 0.6325 µM)	relative viability (Vandetanib + Phenformin; first compound 2 µM)
NCI-H2009	0.649	0.547	0.564	0.726	0.603	1.16	1.07	1.2	1.15	1.15	0.649	0.668	0.658	0.688	0.716	0.495	0.462	0.416	0.443	0.361
NCI-H2170	0.687	0.653	0.718	0.698	0.706	0.782	0.799	0.746	0.805	0.781	0.639	0.615	0.546	0.609	0.663	0.342	0.402	0.415	0.409	0.357
NCI-H1648	0.238	0.239	0.289	0.26	0.28	–	–	–	–	–	0.591	0.771	0.91	1.15	0.761	–	–	–	–	–
NCI-H1623	0.488	0.386	0.397	0.553	0.345	–	–	–	–	–	–	–	–	–	–	0.574	0.525	0.574	0.526	0.622
LU99A	0.269	0.278	0.297	0.323	0.3	0.52	0.446	0.511	0.414	0.596	0.251	0.301	0.173	0.209	0.272	0.876	0.818	0.577	0.766	0.886
PC-3 [JPC-3]	0.717	0.877	0.771	0.888	0.483	1.03	1	0.982	0.736	0.507	1.06	0.961	1.06	0.747	0.557	0.471	0.466	0.496	0.334	0.331
A549	–	–	–	–	–	0.686	0.698	0.613	0.751	0.663	0.234	0.368	0.349	0.291	0.356	0.195	0.133	0.121	0.142	0.0686
HCC-44	0.421	–	0.566	0.531	0.47	0.799	0.812	0.999	0.807	0.762	0.914	0.944	0.948	0.973	1	0.186	0.223	0.175	0.242	0.121
H3255	0.732	0.596	0.608	0.581	0.702	0.681	0.634	0.602	0.335	0.119	0.516	0.518	0.594	0.509	0.27	0.427	0.359	0.35	0.303	0.192
LXF-289	0.515	0.863	0.797	0.846	0.589	1.05	1	1.02	1.03	1.04	1.01	1.05	0.682	1	1	0.503	0.5	0.499	0.489	0.509
PC-14	0.606	0.923	0.669	1.22	0.729	0.922	0.846	0.911	0.447	0.182	0.25	0.248	0.26	0.217	0.117	0.576	0.478	0.215	0.235	0.125
NCI-H661	0.638	0.687	0.689	0.748	0.682	0.602	0.565	0.604	0.441	0.582	0.793	0.696	0.726	0.759	0.735	0.265	0.284	0.269	0.279	0.271
Calu-6	–	–	–	–	–	0.99	1.01	0.881	0.895	0.843	0.526	0.552	0.579	0.572	0.563	–	–	–	–	–
NCI-H1703	–	–	–	–	–	0.306	–	0.347	0.284	0.222	0.458	0.267	0.385	0.342	0.303	–	–	–	–	–
NCI-H1299	–	–	–	–	–	0.956	0.997	1.07	1.09	1.04	0.983	0.928	0.924	0.933	0.981	–	–	–	–	–
ChaGo-K-1	–	0.491	0.616	0.587	0.452	–	–	–	–	–	0.415	0.427	0.161	0.411	0.438	0.411	0.463	0.297	0.452	0.466
NCI-H1650	0.557	0.56	0.611	0.689	0.354	–	–	–	–	–	0.753	0.827	0.756	0.792	0.572	0.409	0.332	0.251	0.329	0.321
SW 900	0.48	0.448	0.506	0.763	0.424	–	–	–	–	–	0.804	0.784	–	0.88	0.815	0.635	0.657	0.197	0.474	0.434
NCI-H522	0.674	0.681	0.717	0.713	0.685	–	–	–	–	–	0.604	0.703	0.689	0.743	0.605	0.691	0.623	0.66	0.585	0.712
IA-LM	–	–	–	–	–	0.588	0.783	0.791	0.961	0.811	0.969	0.874	0.864	0.867	0.849	–	–	–	–	–
